Like-named read-outs stand apart in the source and are kept apart here.
Legend:
[1] = test system: p3TPLux in 6F mink lung cells; assay: antagonism of p3TPLux activation in 6F mink lung cells; assay type: cell-based; conditions: for suppression of reporter activation by copper: TGFβ-responsive reporter; for suppression of reporter activation by 1a / suppression of reporter activation by 2 / suppression of reporter activation by TGFβ: TGFβ-responsive reporter in mink lung epithelial cells
Protocol: LUCIFERASE ASSAYS: Our transient transfection luciferase assay was described previously by us (Stockwell et al., Chem Biol 5:385, 1998). Briefly, 100,000 Mv1Lu mink lung epithelial cells were transiently transfected in 12-well dishes with 400 ng p3TPLux or pNFkB-Lux, with or without 50 ng pFC-MEKK, in 300 μL minimal essential medium with non-essential amino acids. The DEAE-dextran/chloroquine/DMSO methods was used for transfection (Stockwell et al., Chem Biol 6:71, 1999). After cell lysis in 120 μL lysis buffer, a Beckman LS 6500 liquid scintillation counter was used in single photon mode to quantitate luminescence. For detection of luciferase activity in 6F cells (including the primary screen), 20,000 6F cells were seeded in 50 μL of 10% mink medium in each well of a white 384-well plate (Nalge Nune International; Naperville, Ill.; cat#164610) using a Multidrop 384 liquid dispenser (Lab Systems; Helsinki, Finland). After 16 hours, medium was removed using a 24 channel wand (V&P Scientific, Inc.; San Diego, Calif.; cat#VP 186L), the cells were washed with 75 μL of 0.2% mink medium (containing 0.2% FBS), and reagents were added in 40 μL of 0.2% medium. For the primary screen, reagents were added by pin transfer using 384 polypropylene pin arrays (Matrix Technologies; Hudson, N.H.). After 24 hours, the cells were cooled on ice and washed twice with 75 μL Hanks Balanced Salt Solution (HBSS; GibcoBRL; cat#24020-117). Then 20 μL lysis buffer (25 mM glycylglycine (Sigma; cat#E-0396), 1% Triton X-100 (Sigma; cat#T-9284), 1 mM dithiothreitol (DTT; Sigma; cat#D-5545), 1 mM phenylmethylsulfonyl fluoride (PMSF; Sigma; cat#P-7626)) was added to each well with a Multidrop. After incubating the cells for five minutes on ice, 20 μL of ATP/luciferin solution was added (25 mM glycylglycine pH 7.8, 15 mM MgSO4, 4 mM EGTA, 6.25 mM K2HPO4 (Sigma; cat#P5504) pH 7.8, 5 mM DTT, 75 μM D-luciferin (Sigma, cat# L-9504, 2 mM ATP (Sigma; cat#A-7699)). Light output was immediately measured with an Analyst 384-well platereader (LJL), with 0.5 second counting time per well.

[2] = UV spectral shift binding assay with 2; conditions: metal ion concentration inducing a 50% shift in λmax of UV shoulder of 2 from 297 nm to 310 nm ([2] = 20 μM); read-out: EC50UV 2
Protocol: (§1) UV SPECTRAL SHIFT BINDING ASSAY: A quartz cuvette with 1 mL deionized, distilled water was used as a blank on a Cary 1E UV-visible spectrophotomer. 1a or 2 was diluted to a final concentration of 15 μM or 20 μM, respectively, and the UV spectrum from 240 nm to 320 nm was measured. […] Upon addition of certain transition metals (Table 1), this peak shifted such that the new λmax was 273 nm and 310 nm, for 1a and 2, respectively. […] For the calculation of correlation coefficients, all values less than 7.5 μM were taken to be 7.5 μM, all values greater than 1000 μM were taken to be 1000 μm and all values less than 10 μM were taken to be 10 μM.

[3] = UV spectral shift binding assay with 1a; conditions: metal ion concentration inducing a 50% shift in λmax of UV shoulder of 1a ([1a] = 15 μM) from 292 nm to 273 nm; estimate of dissociation constant; read-out: EC50UV 1a
Protocol: as §1

[4] = metal ion concentration inhibiting 50% of the activation of p3TPLux by 1a ([1a] = 3 μM) in 6F mink lung cells, read-out: EC50SU 1a
[5] = metal ion concentration inhibiting 50% of the activation of p3TPLux by 2 ([2] = 64 μM) in 6F mink lung cells, read-out: EC50Su 2

## O.O.O.O.O.O.[Cl-].[Cl-].[Co+2] [Co^2+, CoCl2.6H2O]
[1]
  suppression of reporter activation by copper: did not
  suppression of reporter activation by 1a: completely suppressed
  suppression of reporter activation by 2: completely suppressed
  suppression of reporter activation by TGFβ: no effect

## CC(=O)[O-].CC(=O)[O-].[Ba+2] [Ba^2+, Ba(OAc)2]
[2]
  EC50: > 1000 µM
[3]
  EC50: > 1000 µM
[1]; [4]
  EC50: > 1000 µM
[1]; [5]
  EC50: > 1000 µM

## O.O.O.O.O.O.O=S(=O)([O-])[O-].[Ni+2] [Ni^2+, NiSO4.6H2O]
[2]
  EC50: 500 µM
[3]
  EC50: 280 µM
[1]
  suppression of reporter activation by copper: did not
  suppression of reporter activation by 1a: suppressed transcriptional activation by 1a
  suppression of reporter activation by 2: no effect on activation by 2 or TGFβ
  suppression of reporter activation by TGFβ: no effect on activation by 2 or TGFβ
[1]; [4]
  EC50: 10 µM

## [Cl][Fe]([Cl])[Cl] [Fe^3+, FeCl3]
[2]
  EC50: < 10 µM
[3]
  EC50: < 7.5 µM
[1]
  suppression of reporter activation by copper: did not
  suppression of reporter activation by 1a: completely suppressed
  suppression of reporter activation by 2: completely suppressed
  suppression of reporter activation by TGFβ: no effect
[1]; [4]
  EC50: 2 µM
[1]; [5]
  EC50: 9 µM

## CC(C)(C#N)N=NC(C)(C)C#N [AIBN, 2,2′-azobis (2-methylpropinonitrile)]
[1]
  alteration of the effect of 1a, 2, or copper on the reporter: neither agent altered the effect of 1a, 2, or copper

## [Ca+2].[Cl-].[Cl-] [Ca^2+, CaCl2.2H2O]
[2]
  EC50: > 1000 µM
[3]
  EC50: > 1000 µM
[1]; [4]
  EC50: > 1000 µM
[1]; [5]
  EC50: > 1000 µM

## O.O.O.O.[Cl][Mn][Cl] [Mn^2+, MnC12.4H2O]
[2]
  EC50: > 1000 µM
[3]
  EC50: 80 µM
[1]
  suppression of reporter activation by copper: did not
  suppression of reporter activation by 1a: suppressed transcriptional activation by 1a
  suppression of reporter activation by 2: no effect on activation by 2 or TGFβ
  suppression of reporter activation by TGFβ: no effect on activation by 2 or TGFβ
[1]; [4]
  EC50: 200 µM
[1]; [5]
  EC50: > 300 µM

## [Cl-].[K+] [K^+, KCl]
[2]
  EC50: > 1000 µM
[3]
  EC50: > 1000 µM
[1]; [4]
  EC50: > 1000 µM
[1]; [5]
  EC50: > 1000 µM

## OO [Compound H2O2, H2O2]
[1]
  alteration of the effect of 1a, 2, or copper on the reporter: neither agent altered the effect of 1a, 2, or copper

## [Cl-].[Na+] [Na^+, NaCl]
[2]
  EC50: > 1000 µM
[3]
  EC50: > 1000 µM
[1]; [4]
  EC50: > 1000 µM
[1]; [5]
  EC50: > 1000 µM

## [Cl-].[Cl-].[Mg+2] [Mg^2+, MgCl2]
[2]
  EC50: > 1000 µM
[3]
  EC50: > 1000 µM
[1]; [4]
  EC50: > 1000 µM
[1]; [5]
  EC50: > 1000 µM

## [Cl-].[Cl-].[Zn+2] [Zn^2+, ZnCl2]
[2]
  EC50: 500 µM
[3]
  EC50: < 7.5 µM
[1]
  suppression of reporter activation by copper: suppressed the ability of copper to activate reporter gene expression
  suppression of reporter activation by 1a: suppressed transcriptional activation by 1a
  suppression of reporter activation by 2: no effect on activation by 2 or TGFβ
  suppression of reporter activation by TGFβ: no effect on activation by 2 or TGFβ
[1]; [4]
  EC50: 0.5 µM
[1]; [5]
  EC50: > 300 µM

## [Cl-].[Cl-].[Co+2] [Co^2+, CoCl2.6H2O]
[2]
  EC50: 50 µM
[3]
  EC50: 100 µM
[1]; [4]
  EC50: 10 µM
[1]; [5]
  EC50: 30 µM

## [Cl][Al]([Cl])[Cl] [Al^3+, A1C13]
[2]
  EC50: 200 µM
[3]
  EC50: 30 µM
[1]
  suppression of reporter activation by copper: did not
  suppression of reporter activation by 1a: suppressed transcriptional activation by 1a
  suppression of reporter activation by 2: no effect on activation by 2 or TGFβ
  suppression of reporter activation by TGFβ: no effect on activation by 2 or TGFβ
[1]; [4]
  EC50: 1 µM
[1]; [5]
  EC50: > 300 µM

— patent publication US20080311589A1, “METHOD OF HIGH-THROUGHPUT SCREENING OF MOLECULES AND COMPOUNDS FOR THEIR EFFECTS ON BIOLOGICAL AND CHEMICAL PROCESSES” (priority 1999, published 2008)
